*1 amine or outer side, *2 acyl side, *3 side chain or, on linkers, in order; H or OH if unused. Where a SMILES comes first, the peptide text is derived from it. Bridges are numbered along the chain shown (N, C = ends). Roman numbers before positions name the chains, in order. [ ]: non-standard residue; d: D form. Actinocin(9to1) = Cc1c2oc3c(C)ccc(C(=O)[*:1])c3nc-2c(C(=O)[*:2])c(N)c1=O; NMeV = CN[C@H](C(=O)O)C(C)C; Sar = CNCC(=O)O

For experiment [1], the system named is CP (DNA, duplex) AGGTTGGTGAGTGATTGGAGGTT/AATCACTCACCAACCT
Nature of the experiment: fluorescence turn-on. The note with it: 20 nM CP; site size 2.4; per base.

For experiment [2], the system named is CP (C 28nt / P 21nt) (DNA, duplex) ACAAGAGGTTGGTGAGTGATTGGAGGTT/AATCACTCACCAACCTCTTGT
Nature of the experiment: BIND strand displacement fluorescence. To be noted: none (no metal cations); 1x TE, 37 °C; critical binder concentration scales with duplex length.

Experiment [3] relates to CP (C 18nt / P 11nt) (DNA, duplex) GGTGAGTGATTGGAGGTT/AATCACTCACC
Nature of the experiment: BIND strand displacement fluorescence. To be noted: none (no metal cations); 1x TE, 37 °C; critical binder concentration scales with duplex length.

Experiment [4] deals with CP (DNA, duplex) AGGTTGGTGAGTGATTGGAGGTT/AATCACTCACCAACCT
Nature of the experiment: BIND strand displacement fluorescence, McGhee-von Hippel fit. The note with it: none (no metal cations), 1x TE, 37 °C, 20 nM CP, 10 nM invader I, per base.

Experiment [5] has the same test system. Nature of the experiment: BIND strand displacement fluorescence. The note with it: none (no metal cations); 1x TE, 37 °C; 20 nM CP, 10 nM invader I.
The test system of experiment [6] is sink probe 5'-GCGCC-3' (DNA, hairpin) CGCGCGGCAAAAAGCCGCGCG
Nature of the experiment: competitive BIND, sink against CP. To be noted: none (no metal cations); 1x TE, 37 °C; sink in up to 100-fold excess over CP.

Experiment [7] deals with sink probe 5'-TAAAT-3' (DNA, hairpin) CGATTTACAAAAAGTAAATCG
Nature of the experiment: competitive BIND, sink against CP. The note with it: none (no metal cations); 1x TE, 37 °C; sink in up to 100-fold excess over CP.

The test system of experiment [8] is CP (75% GC) (DNA, duplex) GGGCTACGCGATGCGCGGAGGTT/GCGCATCGCGTAGCCC
Nature of the experiment: BIND strand displacement fluorescence, McGhee-von Hippel fit. The note with it: none (no metal cations); 1x TE, 37 °C; 20 nM CP, 10 nM invader I; per base.

The subject of experiment [9] is CP (25% GC) (DNA, duplex) AATTCGATTAGCAATTGGAGGTT/AATTGCTAATCGAATT
The experiment is described as above. The note with it: none (no metal cations); 1x TE, 37 °C; 20 nM CP, 10 nM invader I; per base.

By Kd is commonly meant the concentration at which binding is half-saturated. As to `CCCN(CCCN(C)C)c1cc(C=C2Sc3ccccc3N2C)c2ccccc2[n+]1-c1ccccc1`, the Kd in [1] is given as 9.3 nM; in experiment [4] (site size 2.6, b11 prints 7.1 nM), 7.0 nM. Moreover, the binding entry in [2] and in experiment [3] was “yes” each time.

For the molecule `c1ccc(C[n+]2cccc3ccccc32)cc1`, in experiment [5], the binding entry is on record as “no”.

In the case of `Cn1cc(NC(=O)c2cc(NC(=O)CN=C(N)N)cn2C)cc1C(=O)NCCC(=N)N`, in experiment [6], the binding entry was “no”.

For the molecule `Cc1c2oc3c(C)ccc(C(=O)N[C@@H]4C(=O)N[C@H](C(C)C)C(=O)N5CCC[C@H]5C(=O)N(C)CC(=O)N(C)[C@@H](C(C)C)C(=O)O[C@@H]4C)c3nc-2c(C(=O)N[C@@H]2C(=O)N[C@H](C(C)C)C(=O)N3CCC[C@H]3C(=O)N(C)CC(=O)N(C)[C@@H](C(C)C)C(=O)O[C@@H]2C)c(N)c1=O` (I: T[dV]P[Sar][NMeV] / II: T[dV]P[Sar][NMeV]; ester I:1-I:C, II:1-II:C; linker I:N-II:N via Actinocin(9to1)), the binding result in [7] is given as “no”. Further, the values for the Kd in experiment [8] and in experiment [9] were 83 nM and 983 nM, respectively.

On to `[Ru+2].c1cnc2c(c1)ccc1cccnc12.c1cnc2c(c1)ccc1cccnc12.c1cnc2c(c1)ccc1cccnc12`, for which the binding entry in experiment [5] is listed as “weak”.

In [4] (site size 1.3), `CCN(CC)CCn1nc2c3c(cccc3c1=O)-c1ccccc1-2` returned a Kd of 212 nM.

The record behind these values is PMC10352304 (2023).
